Measurements from ChEMBL document CHEMBL1201862, “PubChem BioAssay data set” (2004).
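These data come from cells grown in 96-well plates and exposed to compound for 48 hours at five concentrations. Abbreviation: GI50, concentration required for 50% inhibition of growth.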 The source made the active and inactive calls. No stated cut-off is given here; in the data, active = GI50 up to about 1.1 µM and inactive = higher.

Legend:
Experiment in all cases: DTP human tumour cell line panel, 48 h
A498 = tested on: A498
A549 = tested on: A549
CCRF-CEM = tested on: CCRF-CEM
EKVX = tested on: EKVX
HCC 2998 = tested on: HCC 2998
HCT-15 = tested on: HCT-15
HOP-62 = tested on: HOP-62
IGROV-1 = tested on: IGROV-1
KM12 = tested on: KM12
LOX IMVI = tested on: LOX IMVI
Malme-3M = tested on: Malme-3M
NCI-H226 = tested on: NCI-H226
NCI-H23 = tested on: NCI-H23
OVCAR-3 = tested on: OVCAR-3
OVCAR-8 = tested on: OVCAR-8
SF-539 = tested on: SF-539
SK-OV-3 = tested on: SK-OV-3
UO-31 = tested on: UO-31
NCI-H522 = tested on: NCI-H522

Compound | GI50 (A498) | GI50 (A549) | GI50 (CCRF-CEM) | GI50 (EKVX) | GI50 (HCC 2998) | GI50 (HCT-15) | GI50 (HOP-62) | GI50 (IGROV-1) | GI50 (KM12) | GI50 (LOX IMVI) | GI50 (Malme-3M) | GI50 (NCI-H226) | GI50 (NCI-H23) | GI50 (OVCAR-3) | GI50 (OVCAR-8) | GI50 (SF-539) | GI50 (SK-OV-3) | GI50 (UO-31) | GI50 (NCI-H522)
CCN(N=O)C1C2(CCCC2)NC(=O)C12CCCC2 (configuration not stated) | > 100 µM (inactive) | > 100 µM (inactive) | > 100 µM (inactive) | > 100 µM (inactive) | > 100 µM (inactive) | > 100 µM | > 100 µM (inactive) | > 100 µM (inactive) | > 100 µM (inactive) | > 100 µM (inactive) | > 100 µM (inactive) | > 100 µM (inactive) | > 100 µM (inactive) | > 100 µM (inactive) | > 100 µM (inactive) | > 100 µM (inactive) | > 100 µM (inactive) | > 100 µM (inactive) | 
O=c1[nH]nc2ccccc2c1Cc1ccccc1 | > 100 µM (inactive) | > 100 µM (inactive) | > 100 µM (inactive) | > 100 µM (inactive) | 59.3 µM (inactive) | > 100 µM | > 100 µM (inactive) | > 100 µM (inactive) | > 100 µM (inactive) | > 100 µM (inactive) | > 100 µM (inactive) | > 100 µM (inactive) | > 100 µM (inactive) | > 100 µM (inactive) | > 100 µM (inactive) | > 100 µM (inactive) | > 100 µM (inactive) | > 100 µM (inactive) | 
CC(=O)C(=[N+]=[N-])C(=O)OCCOC(=O)C(=[N+]=[N-])C(C)=O | > 1 µM (active) | > 1 µM (active) | > 1 µM (active) | > 1 µM (active) | > 1 µM (active) | > 1 µM | > 1 µM (active) | > 1 µM (active) | > 1 µM (active) | > 1 µM (active) | > 1 µM (active) | > 1 µM (active) | > 1 µM (active) | > 1 µM (active) | > 1 µM (active) | > 1 µM (active) | > 1 µM (active) | > 1 µM (active) | 
Nc1cc(O)nc(SC2=NC(N)CC(O)C2)n1 (configuration not stated) |  |  | > 100 µM (inactive) | > 100 µM (inactive) | > 100 µM (inactive) | > 100 µM | > 100 µM (inactive) | > 100 µM (inactive) | > 100 µM (inactive) | > 100 µM (inactive) | > 100 µM (inactive) | > 100 µM (inactive) | > 100 µM (inactive) | > 100 µM (inactive) | > 100 µM (inactive) | > 100 µM (inactive) | > 100 µM (inactive) | > 100 µM (inactive) | > 100 µM (inactive)
COC1(OC)C(N(C)C)=C(Cl)C(=O)/C1=C/C=O | > 100 µM (inactive) | > 100 µM (inactive) | 20.9 µM (inactive) |  | > 100 µM (inactive) | 98.9 µM | > 100 µM (inactive) | > 100 µM (inactive) |  | 84.7 µM (inactive) | > 100 µM (inactive) | > 100 µM (inactive) | > 100 µM (inactive) | 60.1 µM (inactive) | > 100 µM (inactive) |  | > 100 µM (inactive) | > 100 µM (inactive) | 
CCCN(CCCN)/[N+]([O-])=N\O |  | > 100 µM (inactive) | > 100 µM (inactive) | 0.24 µM (active) | > 100 µM (inactive) | > 100 µM | > 100 µM (inactive) | > 100 µM (inactive) | > 100 µM (inactive) |  | > 100 µM (inactive) | > 100 µM (inactive) | > 100 µM (inactive) | > 100 µM (inactive) | > 100 µM (inactive) | > 100 µM (inactive) | > 100 µM (inactive) | > 100 µM (inactive) | > 100 µM (inactive)
O=C(O)c1ccccc1/N=N/c1ccc2oc(=O)c(C(=O)Nc3ccccc3)cc2c1 |  | 40.8 µM (inactive) | 28.6 µM (inactive) | 30.1 µM (inactive) |  | 32.7 µM | 35.6 µM (inactive) | 46.5 µM (inactive) | 31.8 µM (inactive) | 35.9 µM (inactive) | 23.7 µM (inactive) | 25.7 µM (inactive) | 34 µM (inactive) | 20.4 µM (inactive) | 38.1 µM (inactive) | 31.3 µM (inactive) | 52.8 µM (inactive) | 37.1 µM (inactive) | 34.8 µM (inactive)
Cc1cc2[n-][n+]3ncc(-c4ccccc4)n3c2cc1[N+](=O)[O-] | > 100 µM (inactive) | > 100 µM (inactive) | > 100 µM (inactive) | > 100 µM (inactive) |  | > 100 µM | > 100 µM (inactive) | > 100 µM (inactive) | > 100 µM (inactive) | > 100 µM (inactive) |  |  |  | > 100 µM (inactive) |  | > 100 µM (inactive) | > 100 µM (inactive) | > 100 µM (inactive) | > 100 µM (inactive)
Cc1c2n(c(=O)[nH]c1=O)C1OC(CO)C(O2)C1O (configuration not stated) | 23 µM (inactive) | > 100 µM (inactive) | > 100 µM (inactive) | > 100 µM (inactive) |  | > 100 µM | > 100 µM (inactive) | > 100 µM (inactive) | > 100 µM (inactive) | > 100 µM (inactive) |  | > 100 µM (inactive) | > 100 µM (inactive) | > 100 µM (inactive) | > 100 µM (inactive) | > 100 µM (inactive) | > 100 µM (inactive) | > 100 µM (inactive) | > 100 µM (inactive)
COC1OC(C)C(O)CC1OS(=O)(=O)c1ccc(C)cc1 (configuration not stated) | > 100 µM (inactive) | > 100 µM (inactive) | > 100 µM (inactive) | > 100 µM (inactive) |  | > 100 µM |  | > 100 µM (inactive) | > 100 µM (inactive) | > 100 µM (inactive) | > 100 µM (inactive) | > 100 µM (inactive) | > 100 µM (inactive) | > 100 µM (inactive) | > 100 µM (inactive) | > 100 µM (inactive) | > 100 µM (inactive) | > 100 µM (inactive) | > 100 µM (inactive)
CC(C)C1CCC/C=C/C=C/C=C/C=C/C(OC2OC(C)C(O)C(N)C2O)CC2OC(O)(CC(O)CC(O)C(O)CCC(=O)O1)CC(O)C2C(=O)O (configuration not stated) | > 52.5 µM (inactive) | > 52.5 µM (inactive) | > 52.5 µM (inactive) |  |  | > 52.5 µM | > 52.5 µM (inactive) | > 52.5 µM (inactive) |  |  | > 52.5 µM (inactive) |  |  | > 52.5 µM (inactive) | > 52.5 µM (inactive) | > 52.5 µM (inactive) | > 52.5 µM (inactive) | > 52.5 µM (inactive) | > 52.5 µM (inactive)
O=C(c1ccc(Cl)cc1)N(C(=S)N1CCN(c2ccccn2)CC1)C1CCCCC1 |  | 45.1 µM (inactive) | 48.5 µM (inactive) |  |  | 43.8 µM | 71.8 µM (inactive) | > 100 µM (inactive) | 68.1 µM (inactive) | 56.1 µM (inactive) | > 100 µM (inactive) | 18.2 µM (inactive) | 96.8 µM (inactive) | 45.9 µM (inactive) | > 100 µM (inactive) | 61.7 µM (inactive) | > 100 µM (inactive) | 48.3 µM (inactive) | 38.6 µM (inactive)
